# Results as given in US20070213403A1, “TAMOXIFEN RESPONSE IN PRE-AND POST[…] CANCER PATIENTS” (priority 2004, published 2007).
# Key:
# [1] = system: premenopausal patients with stage II invasive breast cancer; assay: Randomised trial of two years of adjuvant tamoxifen vs control in premenopausal patients; format: in vivo, human
# From the text: Premenopausal patients or patients under 50 years with stage II (pT2 N0 M0, pT1 N1 M0 and pT2, N1 M0) invasive breast cancer were enrolled in a clinical trial between 1986 -1991 and randomized to control (n=288) or two years of tamoxifen (n=276). All patients were radically operated by modified radical mastectomy or breast conserving surgery with axillary lymph node dissection (level one and two). After breast conserving surgery, radiotherapy (50 Gy) was given to the breast and in patients with axillary lymph node metastases locoregional radiotherapy was delivered. Patients were included irrespective of hormone receptor status. Randomization was performed by the Regional Oncologic Centre and oral informed consent registered for all patients. The study was approved by the ethical committee at Lund and Linkoping Universities.
# The patients were followed until 5 years with annual mammogram and physical examination and then within the national program by screening mammogram every 18th month.The median duration of follow-up for patients without breast cancer event was 13.9 years (95% Cl: 13.6-14.3). The median follow-up time was the same in the two treatment arms. • 2. Postmenopausal Patients
# (§1) 3-4 um sections of the paraffin embedded tissue arrays were dried, deparaffinized, rehydrated and microwave treated for 5+5 min in a citrate buffer (pH 6.0) before being processed in an automatic immunohistochemistry staining machine according to standard procedures (TechMate500, Dako, Denmark) using a polyclonal VEGF (A-20) antibody diluted 1:400 recognizing VEGF 165, 189 and 121 (Santa Cruz, Calif., USA) and a monoclonal VEGFR2 antibody recognizing VEGFR2/KDR diluted 1:1000 (Santa Cruz, Calif., USA). Normal human kidneys were used as positive controls for VEGF-A and for VEGFR2, human aortic endothelium served as positive controls. VEGF-A was previously validated using an ELISA-based method (LR). The cytoplasmatic staining intensity was evaluated semi-quantitatively using a classification from 0-3, representing lack of staining (0), low staining intensity (1), intermediate staining intensity (2) and high staining intensity (3). Only invasive tumor cells were evaluated. In survival analyses, high staining intensity (grade 3) was compared with the other grades (0, 1, 2) for both VEGF-A and VEGFR2 in premenopausal patients. In postmenopausal patients lack of staining was compared with staining of any intensity.
# ER and PR were determined by immunohistochemistry in a tissue microarray. For this purpose, the Ventana Benchmark system (Ventana Medical Systems Inc., AZ, USA) with prediluted antibodies (Anti-ER Clone 6F11 and Anti-PgR Clone 16) was used. In line with the clinically established cut-off used for hormone receptor assessment, tumors with more than 10% positively staining nuclei were considered positive. In addition, the fractions of positive nuclei were quantified. […]
# (§2) For survival analyses all calculations were done according to the intention to treat rule. Recurrence-free survival (RFS) considered distant, local and regional metastasis as primary event as well as breast cancer death, whereas contralateral breast cancer was not included. The Kaplan-Meier method was used to estimate recurrence-free and breast cancer survival and the log-rank test to compare survival in different strata. Cox proportional hazards model was used for estimation of univariate hazard ratios (HRs) and multivariate analysis.
# [2] = system: postmenopausal patients with stage II invasive breast cancer; assay: Randomised trial of two years of tamoxifen (40 mg/day) vs control in postmenopausal patients; format: in vivo, human
# From the text: The patients included were enrolled in a multi-center clinical trial at Umea University Hospital, Sweden, during 1980-1987 (Trial II) included in the Oxford meta-analysis. The inclusion criteria were postmenopausal patients (>55 years) with stage II (pT1, pN1, pM0, pT2, pN0, pM0, pT2, […], pM0) invasive breast cancer. For patients older than 70 years, stage II and stage III breast cancer patients were included. Patients were operated with modified radical mastecomy. The hormone receptor level was not determined at time of randomization. Patients were randomized to control or tamoxifen treatment (40 mg/day) for two years by the Regional Oncologic Center and oral informed consent was registered on admission to the Oncological Clinic. The study was approved by the Ethical Committee at the Umea university 1980 as well as 2002 (modification regarding molecular markers used in tissue micro array). The median age was 66.5 years (55-75 years) at inclusion. The median follow-up time was 18 years (range 15-22 years) for surviving patients.
# as §1
# ER and PR were determined by immunohistochemistry in a tissue microarray. For this purpose, the Ventana Benchmark system (Ventana Medical Systems Inc., AZ, USA) with prediluted antibodies (Anti-ER Clone 6F11 and Anti-PgR Clone 16) was used. In line with the clinically established cut-off used for hormone receptor assessment, tumors with more than 10% positively staining nuclei were considered positive. In addition, the fractions of positive nuclei were quantified.
# as §2
# [3] = system: hormone receptor positive breast cancer; conditions: adjuvant tamoxifen for five years; cited from earlier work
# [4] = Cox model with VEGFR2 status and interaction-variable, ER positive patients
# [5] = Cox model, ER positive patients
# [6] = Cox multivariate model with VEGF-A status and interaction-variable, ER positive patients
# [7] = Cox multivariate model, ER positive patients
# [8] = ER positive patients, univariate
# [9] = ER positive, HER2 low tumors, univariate
structure (smiles),measurement,setting,value
CC/C(=C(\c1ccccc1)c1ccc(OCCN(C)C)cc1)c1ccccc1 [tamoxifen],absolute risk reduction (recurrence),"[1]; 324 ER positive patients, two years of tamoxifen vs control",15%
same,"HR, OS, Randomization Tam v control",[1]; [4],0.6
same,"HR, RFS, Randomization Tam v control",[1]; [4],0.6
same,"HR, OS, interaction-variable tamoxifen treatment x VEGFR2 status",[1]; [5],5.2
same,"HR, RFS, interaction-variable tamoxifen treatment x VEGFR2 status",[1]; [5],2.2
same,"HR, OS, Randomization Tam v control",[1]; [6],1.1
same,"HR, RFS, Randomization Tam v control",[1]; [6],0.5
same,"HR, OS, interaction-variable tamoxifen treatment x VEGF-A status",[1]; [7],0.5
same,"HR, RFS, interaction-variable tamoxifen treatment x VEGF-A status",[1]; [7],1.5
same,"HR, OS (tamoxifen vs control)",[1]; ER negative disease,0.9
same,"HR, RFS (tamoxifen vs control)",[1]; ER negative disease,0.9
same,recurrence rate,"[1]; ER positive patients, tamoxifen treated group",36%
same,"HR, OS (tamoxifen vs control)",[1]; [8],0.8
same,"HR, RFS (tamoxifen vs control)",[1]; [8],0.6
same,"HR, OS (tamoxifen vs control)",[1]; [9],0.8
same,"HR, RFS (tamoxifen vs control)",[1]; [9],0.6
same,"HR, OS (tamoxifen vs control)","[1]; ER positive, HER 2 overexpressing tumor, univariate",0.9
same,"HR, RFS (tamoxifen vs control)","[1]; ER positive, HER2 overexpression, univariate",0.7
same,"HR, RFS (tamoxifen vs control)","[1]; ER positive, VEGF grade 3 tumors, univariate",0.8
same,"HR, RFS (tamoxifen vs control)","[1]; ER positive, VEGF-A grade 0-2 tumors, univariate",0.6
same,"HR, OS (tamoxifen vs control)","[1]; ER positive, VEGFA grade 0-2 tumors, univariate",0.8
same,"HR, OS (tamoxifen vs control)","[1]; ER positive, VEGFA grade 3 tumors, univariate",0.8
same,"HR, OS (tamoxifen vs control)","[1]; ER positive, VEGFR2 3",3.4
same,"HR, RFS (tamoxifen vs control)","[1]; ER positive, VEGFR2 grade 0, 1 or 2 staining intensity",0.6
same,"HR, OS (tamoxifen vs control)","[1]; ER positive, VEGFR2 grade 0-2",0.7
same,"HR, RFS (tamoxifen vs control)","[1]; ER positive, intense expression of VEGFR2 (grade 3)",1.4
same,"HR of interaction-variable VEGFR2 status x tamoxifen treatment, OS","[2]; Cox model, 10 years, ER positive >90% stained nuclei",0.2
same,"HR, OS at 10 years (tamoxifen vs control)","[2]; ER positive >90% stained nuclei, VEGF-A negative tumors",0.3
same,"HR, OS at 10 years (tamoxifen vs control)","[2]; ER positive >90% stained nuclei, VEGF-A positive tumors",0.8
same,"HR, OS at 10 years (tamoxifen vs control)","[2]; ER positive >90% stained nuclei, VEGFR2 negative tumors",0.2
same,"HR, OS at 10 years (tamoxifen vs control)","[2]; ER positive >90% stained nuclei, VEGFR2 positive tumors",0.9
same,effect on overall survival of tamoxifen treatment,[2]; all patients irrespective of hormone receptor content,non-significant
same,tamoxifen response (overall survival),"[2]; patients with >90% ER positive cells, 10 years","notable at 10-years, however not strictly significant"
same,reduction of death,[3],28%
same,reduction of recurrence,[3],50%
